In article PMC10066365, “Nemacol is a small molecule inhibitor of C. elegans vesicular acetylcholine transporter with anthelmintic potential” (Nature Communications, 2023):
Several values for one entry are separate records, joined by “and”; a condition that tells them apart may be missing. Equal entries are not always repeated.

Legend:
C. elegans = C. elegans motor phenotype scoring on solid media (Punc/jerky-unc, coiled, paralyzed), wild-type young adults; assay type: in vivo, Caenorhabditis elegans; conditions: for AVERAGES Fraction Coiled / AVERAGES Fraction Paralyzed / AVERAGES Fraction Punc: average of 3 replicates; for C1 (number of animals) / C2 (number of animals) / Fraction Coiled / Fraction Paralyzed / Fraction Punc / NP (number of animals) / P (number of animals) / Punc (number of animals) / Next Day Animals alive (moving fine): single replicate
[1] = system: Dirofilaria immitis L3/L4; assay: Dirofilaria immitis L3/L4 motility assay (DiroImager, 72 h); conditions: Dirofilaria immitis L4
[2] = 60uM, one hour, young adults, 20 animals per trial, single replicate counts

SMILES: O=[N+]([O-])c1ccc(N2CCN(CC3CC=CCC3)CC2)cc1 (centres unmarked) [Nemacol-4]
- AVERAGES Fraction Coiled (C. elegans; 30 μM, 120 min): 0.0741
- AVERAGES Fraction Paralyzed (C. elegans; 30 μM, 120 min): 0.0185
- AVERAGES Fraction Punc (C. elegans; 30 μM, 120 min): 0.5
- C1 (number of animals) (C. elegans; 30 μM, 120 min): 2 and 1
- C2 (number of animals) (C. elegans; 30 μM, 120 min): 0
- Fraction Coiled (C. elegans; 30 μM, 120 min): 0.111 and 0.0556
- Fraction Paralyzed (C. elegans; 30 μM, 120 min): 0.0556 and 0.0
- Fraction Punc (C. elegans; 30 μM, 120 min): 0.556 and 0.5
- NP (number of animals) (C. elegans; 30 μM, 120 min): 5 and 8
- P (number of animals) (C. elegans; 30 μM, 120 min): 1 and 0
- Punc (number of animals) (C. elegans; 30 μM, 120 min): 10 and 9
- AVERAGES Fraction Coiled (C. elegans; 30 μM, 240 min): 0.0
- AVERAGES Fraction Paralyzed (C. elegans; 30 μM, 240 min): 0.0
- AVERAGES Fraction Punc (C. elegans; 30 μM, 240 min): 0.333
- C1 (number of animals) (C. elegans; 30 μM, 240 min): 0
- C2 (number of animals) (C. elegans; 30 μM, 240 min): 0
- Fraction Coiled (C. elegans; 30 μM, 240 min): 0.0
- Fraction Paralyzed (C. elegans; 30 μM, 240 min): 0.0
- Fraction Punc (C. elegans; 30 μM, 240 min): 0.333 and 0.222 and 0.444
- NP (number of animals) (C. elegans; 30 μM, 240 min): 12 and 14 and 10
- P (number of animals) (C. elegans; 30 μM, 240 min): 0
- Punc (number of animals) (C. elegans; 30 μM, 240 min): 6 and 4 and 8
- AVERAGES Fraction Coiled (C. elegans; 30 μM, 360 min): 0.0
- AVERAGES Fraction Paralyzed (C. elegans; 30 μM, 360 min): 0.0
- AVERAGES Fraction Punc (C. elegans; 30 μM, 360 min): 0.111
- C1 (number of animals) (C. elegans; 30 μM, 360 min): 0
- C2 (number of animals) (C. elegans; 30 μM, 360 min): 0
- Fraction Coiled (C. elegans; 30 μM, 360 min): 0.0
- Fraction Paralyzed (C. elegans; 30 μM, 360 min): 0.0
- Fraction Punc (C. elegans; 30 μM, 360 min): 0.0556 and 0.278 and 0.0
- NP (number of animals) (C. elegans; 30 μM, 360 min): 17 and 13 and 18
- P (number of animals) (C. elegans; 30 μM, 360 min): 0
- Punc (number of animals) (C. elegans; 30 μM, 360 min): 1 and 5 and 0
- Next Day Animals alive (moving fine) (C. elegans; 30 μM): alive, recovered
- AVERAGES Fraction Coiled (C. elegans; 60 μM, 30 min): 0.111
- AVERAGES Fraction Paralyzed (C. elegans; 60 μM, 30 min): 0.0
- AVERAGES Fraction Punc (C. elegans; 60 μM, 30 min): 0.8
- C1 (number of animals) (C. elegans; 60 μM, 30 min): 1 and 0
- C2 (number of animals) (C. elegans; 60 μM, 30 min): 2 and 1
- Fraction Coiled (C. elegans; 60 μM, 30 min): 0.167 and 0.0556 and 0.111
- Fraction Paralyzed (C. elegans; 60 μM, 30 min): 0.0
- Fraction Punc (C. elegans; 60 μM, 30 min): 0.7 and 0.9
- NP (number of animals) (C. elegans; 60 μM, 30 min): 2 and 4 and 0
- P (number of animals) (C. elegans; 60 μM, 30 min): 0
- Punc (number of animals) (C. elegans; 60 μM, 30 min): 13 and 16
- AVERAGES Fraction Coiled (C. elegans; 60 μM, 60 min): 0.149
- AVERAGES Fraction Paralyzed (C. elegans; 60 μM, 60 min): 0.037
- AVERAGES Fraction Punc (C. elegans; 60 μM, 60 min): 0.7
- C1 (number of animals) (C. elegans; 60 μM, 60 min): 2 and 0 and 1
- C2 (number of animals) (C. elegans; 60 μM, 60 min): 2 and 1
- Fraction Coiled (C. elegans; 60 μM, 60 min): 0.222 and 0.0588 and 0.167
- Fraction Paralyzed (C. elegans; 60 μM, 60 min): 0.111 and 0.0
- Fraction Punc (C. elegans; 60 μM, 60 min): 0.667 and 0.7 and 0.8
- NP (number of animals) (C. elegans; 60 μM, 60 min): 0 and 4
- P (number of animals) (C. elegans; 60 μM, 60 min): 2 and 0
- Punc (number of animals) (C. elegans; 60 μM, 60 min): 12 and 15
- AVERAGES Fraction Coiled (C. elegans; 60 μM, 90 min): 0.148
- AVERAGES Fraction Paralyzed (C. elegans; 60 μM, 90 min): 0.111
- AVERAGES Fraction Punc (C. elegans; 60 μM, 90 min): 0.741
- C1 (number of animals) (C. elegans; 60 μM, 90 min): 3 and 1 and 0
- C2 (number of animals) (C. elegans; 60 μM, 90 min): 1 and 2
- Fraction Coiled (C. elegans; 60 μM, 90 min): 0.222 and 0.167 and 0.0556
- Fraction Paralyzed (C. elegans; 60 μM, 90 min): 0.222 and 0.0556
- Fraction Punc (C. elegans; 60 μM, 90 min): 0.556 and 0.8 and 0.9
- NP (number of animals) (C. elegans; 60 μM, 90 min): 0
- P (number of animals) (C. elegans; 60 μM, 90 min): 4 and 1
- Punc (number of animals) (C. elegans; 60 μM, 90 min): 10 and 14 and 16
- AVERAGES Fraction Coiled (C. elegans; 60 μM, 120 min): 0.111
- AVERAGES Fraction Paralyzed (C. elegans; 60 μM, 120 min): 0.037
- AVERAGES Fraction Punc (C. elegans; 60 μM, 120 min): 0.8
- C1 (number of animals) (C. elegans; 60 μM, 120 min): 1 and 0
- C2 (number of animals) (C. elegans; 60 μM, 120 min): 1 and 2
- Fraction Coiled (C. elegans; 60 μM, 120 min): 0.111
- Fraction Paralyzed (C. elegans; 60 μM, 120 min): 0.0556 and 0.0
- Fraction Punc (C. elegans; 60 μM, 120 min): 0.7 and 0.9 and 0.8
- NP (number of animals) (C. elegans; 60 μM, 120 min): 2 and 0
- P (number of animals) (C. elegans; 60 μM, 120 min): 1 and 0
- Punc (number of animals) (C. elegans; 60 μM, 120 min): 13 and 16 and 15
- AVERAGES Fraction Coiled (C. elegans; 60 μM, 240 min): 0.0
- AVERAGES Fraction Paralyzed (C. elegans; 60 μM, 240 min): 0.037
- AVERAGES Fraction Punc (C. elegans; 60 μM, 240 min): 0.5
- C1 (number of animals) (C. elegans; 60 μM, 240 min): 0
- C2 (number of animals) (C. elegans; 60 μM, 240 min): 0
- Fraction Coiled (C. elegans; 60 μM, 240 min): 0.0
- Fraction Paralyzed (C. elegans; 60 μM, 240 min): 0.0 and 0.111
- Fraction Punc (C. elegans; 60 μM, 240 min): 0.4 and 0.333 and 0.7
- NP (number of animals) (C. elegans; 60 μM, 240 min): 11 and 12 and 3
- P (number of animals) (C. elegans; 60 μM, 240 min): 0 and 2
- Punc (number of animals) (C. elegans; 60 μM, 240 min): 7 and 6 and 13
- AVERAGES Fraction Coiled (C. elegans; 60 μM, 360 min): 0.0
- AVERAGES Fraction Paralyzed (C. elegans; 60 μM, 360 min): 0.0
- AVERAGES Fraction Punc (C. elegans; 60 μM, 360 min): 0.37
- C1 (number of animals) (C. elegans; 60 μM, 360 min): 0
- C2 (number of animals) (C. elegans; 60 μM, 360 min): 0
- Fraction Coiled (C. elegans; 60 μM, 360 min): 0.0
- Fraction Paralyzed (C. elegans; 60 μM, 360 min): 0.0
- Fraction Punc (C. elegans; 60 μM, 360 min): 0.333 and 0.444
- NP (number of animals) (C. elegans; 60 μM, 360 min): 12 and 10
- P (number of animals) (C. elegans; 60 μM, 360 min): 0
- Punc (number of animals) (C. elegans; 60 μM, 360 min): 6 and 8
- Next Day Animals alive (moving fine) (C. elegans; 60 μM): alive, recovered
- any phene, mean % fraction of young adults exhibiting any phenotype (coiled, jerky-Unc or paralyzed) (C. elegans; 60uM, one hour, mean of three biological replicates): 94.1667%
- atypical locomotion (number of animals) (C. elegans; [2]): 9 and 8 and 13 and 10 and 2 and 3
- coiled (number of animals) (C. elegans; [2]): 8 and 7 and 3 and 1 and 4 and 5
- no phene (number of animals) (C. elegans; [2]): 0 and 3 and 4
- paralyzed (number of animals) (C. elegans; [2]): 3 and 5 and 1 and 14 and 12
- EC50 (C. elegans; Caenorhabditis elegans, 1 h, Fig. 1, dose-response at 60 min, wild-type young adults, +/- 95% CI, read-out: EC50): 15 ± 2.3 µM
- % effect (motility), DIROIM L4 ([1]; 2 µM): 5%
- % effect (motility), DIROIM L4 ([1]; 10 µM): 100%
- % effect (motility), DIROIM L4 ([1]; 50 µM): 100%
